Laboratory results taken from patent US9884049B2, “Microbicidal composition comprising an octoxynol and a quinolizidine alkaloid compound or a source thereof” (NOVICOL INTERNATIONAL HOLDING INC., priority 2014, dated 2018).

Experiments:
HIV-1MN = experiment: Anti-HIV activity, MAGI assay in TZM-b1 cells; details: for EC50: HIV-1MN
TZM-b1 cells [1] = experiment: Cytotoxicity, XTT assay
HIV-1ADA-M = experiment: Anti-HIV activity, MAGI assay in TZM-b1 cells; details: for EC50: HIV-1ADA-M
TZM-b1 cells [2] = experiment: Cytotoxicity, CyQuant assay
HIV = details: nearly 1,000 sex workers in Africa, versus placebo; cited from earlier work
[3] = Wash (washed four hours after, then 72 h)

| Compound | TI (CC50/EC50) (HIV-1MN; CyQuant/HIV-1MN, No wash) | TI (CC50/EC50) (HIV-1MN; CyQuant/HIV-1MN, Wash) | EC50 (HIV-1MN; No wash) | EC50 (HIV-1MN; Wash) | TI (CC50/EC50) (HIV-1MN; XTT/HIV-1MN, No wash) | TI (CC50/EC50) (HIV-1MN; XTT/HIV-1MN, Wash) | CC50 (TZM-b1 cells [1]; No wash) | CC50 (TZM-b1 cells [1]; Wash) | TI (CC50/EC50) (HIV-1ADA-M; CyQuant/HIV-1ADA-M, No wash) | TI (CC50/EC50) (HIV-1ADA-M; CyQuant/HIV-1ADA-M, Wash) | EC50 (HIV-1ADA-M; No wash) | EC50 (HIV-1ADA-M; Wash) | TI (CC50/EC50) (HIV-1ADA-M; XTT/HIV-1ADA-M, No wash) | TI (CC50/EC50) (HIV-1ADA-M; XTT/HIV-1ADA-M, Wash) | CC50 (TZM-b1 cells [2]; No wash (72 h)) | CC50 (TZM-b1 cells [2]; [3]) | HIV infection rate, higher than with placebo (HIV) |
| --- | --- | --- | --- | --- | --- | --- | --- | --- | --- | --- | --- | --- | --- | --- | --- | --- | --- |
| O=C1CCC[C@@H]2[C@H]3CCCN4CCC[C@@H](CN12)[C@@H]34 [Matrine, matrine] | 8.91 | 7.06 | 0.0700 % (w/v) | 0.0500 % (w/v) | 4.46 | 22.08 | 0.3122 % (w/v) | 1.1040 % (w/v) | 3.01 | 0.89 | 0.2075 % (w/v) | 0.3948 % (w/v) | 1.50 | 2.80 | 0.6240 % (w/v) | 0.3530 % (w/v) |  |
| IGEPAL® CA-630 | 2.95 | 1.55 | 0.0012 % (w/v) | 0.0031 % (w/v) | 0.13 | 2.31 | 0.0002 % (w/v) | 0.0072 % (w/v) | 9.73 | 1.38 | 0.00037 % (w/v) | 0.0035 % (w/v) | 0.43 | 2.05 | 0.0036 % (w/v) | 0.0048 % (w/v) |  |
| nonoxynol-9 |  |  |  |  |  |  |  |  |  |  |  |  |  |  |  |  | about 50% |
